# Measurements: patent US20050203011A1, “Mitigating symptoms and behaviors of substance abuse by modulating GDNF or BDNF pathway activity” (The Regents of the University of California, priority 2003, published 2005)
# What was measured:
# rats [1] = test: Intra-VTA minipump infusion of anti-GDNF neutralizing antibodies, ethanol self-administration after ibogaine; format: in vivo, rat; details: 3 hours after ibogaine 40 mg/kg i.p., control subjects (intra-VTA mouse IgG)
# Method: An osmotic minipump (Alzet) was then connected to each of the two guide cannulae and was implanted subcutaneously for continuous infusion of either anti GDNF neutralizing antibodies (600 ng/12 N^ol/side/day) or mouse IgG (600 ng/12 μl/side/day).
# rats [2] = test: Ethanol reinstatement after extinction, systemic ibogaine; format: in vivo, rat; details: 40 mg/kg i.p., 3 hours before test
# From the text: The eight rats used in the operant self-administration study were also used to study ethanolseeking after a period of extinction. Following a period of stable responding for ethanol, rats underwent extinction in which no ethanol was delivered following active lever responses.
# GDNF [3] = test: GDNF expression in the midbrain after i.p. ibogaine (RT-PCR), rats; format: in vivo, rat; details: 40 mg/kg i.p., 1, 6 or 12 h post injection
# Method: (§1) Total RNA was isolated using Trizol reagent and reverse transcribed using Reverse Transcription System kit with the oligo (dT)15 primer at 42ûC for 30 minutes. GDNF, Actin or GPDH expressions were analyzed by RT-PCR. The GDNF primers were based on the coding frame of the human GDNF gene: upstream, 5′-TGCCAGAGGATTATCCTGATCAGTTCG ATG3′ (SEQ ID NO: 1); and downstream, 5′-TTGTCGTACGTTGTCTCAGCTGCATCGCAA-3′ (SEQ ID NO:2). The Actin primers were based on the human Actin gene: upstream, 5′-TCATGAAGTGTGACGTTGACATC-3′ (SEQ ID NO:3); and downstream, 5′-AGAAGCATTTGCGGTGGACGATG-3′ (SEQ ID NO:4). The GPDH primers were based on the rat GPDH gene: upstream, 5′-TGAAGGTCGGTGTCAACGGATTTGGC-3′ (SEQ ID NO:5); and downstream, 5′-CATGTAGGCCATGAGGTCCACCAC-3′ (SEQ ID NO:6). PCR conditions were optimized to specifically ensure that the amplification reactions are within the linear range by testing a range of 25-40 PCR cycles. The optimal numbers of cycles used were: 30 cycles for controls GPDH and actin and 35 cycles for GDNF.
# (§2) Male C57B16 mice or Long Evans rats were habituated with 3 saline injections over 3 days followed by i.p. administration of 40 mg/kg ibogaine-HCl. The animals were sacrificed 1, 6 or 12 hours post injection, and brain regions were excised and stored at −80° C. until use for analysis of GDNF expression by RT-PCR.
# GDNF [4] = test: GDNF expression in the midbrain after i.p. ibogaine (RT-PCR), mice; format: in vivo, mouse; details: 40 mg/kg i.p., 1, 6 or 12 h post injection
# Method: as §1, §2
# [5] = system: Ret association with GFRα1; test: Ret association with GFRα1 in SHSY5Y cells (immunoprecipitation, Western blot); format: cell-based, human; details: 3 hours
# Method: (§3) Expression of GDNF and control Actin were analyzed by RT-PCR (n=4). […] GDNF in the media was detected by an ELISA assay. Histogram depicts the mean±SD of GDNF secretion in 3 experiments. […] Ret was immunoprecipitated with anti-Ret antibodies followed by Western blot analysis with anti GFRα1 antibodies. The levels of GFRα1 in the homogenates were determined by Western blot analysis (n=3). […] Ret was immunoprecipitated followed by Western blot analysis with anti-phospho tyrosine or anti-Ret antibodies (n=3). […] Trk phosphorylation was analyzed by Western blot analysis with anti-phospho-Trk antibodies. The levels of TrkB were also determined by Western blot analysis (n=3). Panel F: Cells were pre-incubated with 0.3 unit/ml PI-PLC for 1 h (lanes 3 and 4). […] Ret phosphorylation was determined as described above (n=4). […] Treatment with 50 ng/ml GDNF was used as a positive control (lane 5). The cells were lysed and Ret phosphorylation was analyzed as described above (n=3).
# (§4) Cells were collected and lysed in RIPA buffer (50 mM Tris-Cl, pH 7.6, 150 mM NaCl, 1 % NP40, 0.1% SDS, 0.5% sodium deoxycholate, 2 mM EDTA, protease inhibitor cocktail and 10 mM sodium orthovanadate). Homogenates were incubated with 5 N^og anti-Ret antibody in TBS-T buffer (20 mM Tris-Cl, pH7.6, 137 mM NaCl and 1% NP-40) overnight at 4° C., followed by 2 hours incubation with Protein G agarose. […]
# ERK1/2 = ERK1/2 phosphorylation in SHSY5Y cells; format: cell-based, human; details: 10 μM ibogaine
# Method: ERK2 and pERK1/2 were detected by Western blot analysis with anti-ERK2 and pERK1/2 antibodies respectively. Line-graph depicts the mean ratio (pERK2/ERK2)±SD of 3 experiments. […] Panel C: Cells were pre-incubated with 0.3 unit/ml PI-PLC for 1 h (lane 3).
# Ret = Ret phosphorylation in SHSY5Y cells; format: cell-based, human; details: dose- and time-dependent
# Method: as §3, §4
# [6] = system: tyrosine hydroxylase (TH); test: Tyrosine hydroxylase (TH) protein levels in SHSY5Y cells; format: cell-based, human; details: 100 mM ethanol 24 hours, GDNF 100 ng/ml or ibogaine 10 μM added for last 12 hours
# Method: Panel A: SHSY5Y cells were treated with different concentrations (0, 10, 25, and 100 mM) of ethanol for 24 hours. TH protein levels and control Actin levels were determined by Western blot analysis. Histogram depicts the mean ratio (TI/actin)±SD of 3 experiments. Panel B: Cells were treated with media (control), 100 ng/ml of GDNF for 12 h (lane 1), 100 mM ethanol for 24 hours (lane 2), or 100 mM ethanol for 24 hours to which 100 ng/ml GDNF was added for the last 12 hours (lane 3). The cells were lysed for Western blot analysis. Histogram depicts the mean ratio (TH/actin)±SD of 3 experiments. […] Histogram depicts the mean ratio (TH/actin)±SD of 3 experiments.
substance,measurement,setting,value
12-methoxyibogamine [ibogaine],decrease in responding for ethanol,rats [1],79.1%
same,reinstatement of lever pressing for ethanol,rats [2],reduced
same,expression of GDNF in the midbrain,GDNF [3],increase
same,expression of GDNF in the midbrain,GDNF [4],increase
same,GFRα1 protein levels,[5],not due to increased GFRα1 protein levels
same,Ret association with GFRα1,[5],increased
same,duration of ERK1/2 activation,ERK1/2,up to 6 hours
same,phosphorylation of ERK1/2,ERK1/2,induced
same,Ret phosphorylation,Ret,induced
same,ethanol-induced increase in TH immunoreactivity,[6],inhibited
